# Reference: patent publication US11597708B2, “Inhibitors of heat shock factors and uses thereof” (HSF Pharmaceuticals SA, priority 2016, dated 2023)
# Structures can show the parent of a compound that is named as a salt. Where two headings read alike, the source gives them in different places.
# Target: T1, HSF1 (Homo sapiens, UniProt Q00613)
# T1 construct: functionally linked to an hsp70b promoter and therefore controlled by endogenous HSF1; endogenous in cells; host or cells: HeLa cells / HeLa-derived cell line Z74
# T1 sequence (Q00613 1-529): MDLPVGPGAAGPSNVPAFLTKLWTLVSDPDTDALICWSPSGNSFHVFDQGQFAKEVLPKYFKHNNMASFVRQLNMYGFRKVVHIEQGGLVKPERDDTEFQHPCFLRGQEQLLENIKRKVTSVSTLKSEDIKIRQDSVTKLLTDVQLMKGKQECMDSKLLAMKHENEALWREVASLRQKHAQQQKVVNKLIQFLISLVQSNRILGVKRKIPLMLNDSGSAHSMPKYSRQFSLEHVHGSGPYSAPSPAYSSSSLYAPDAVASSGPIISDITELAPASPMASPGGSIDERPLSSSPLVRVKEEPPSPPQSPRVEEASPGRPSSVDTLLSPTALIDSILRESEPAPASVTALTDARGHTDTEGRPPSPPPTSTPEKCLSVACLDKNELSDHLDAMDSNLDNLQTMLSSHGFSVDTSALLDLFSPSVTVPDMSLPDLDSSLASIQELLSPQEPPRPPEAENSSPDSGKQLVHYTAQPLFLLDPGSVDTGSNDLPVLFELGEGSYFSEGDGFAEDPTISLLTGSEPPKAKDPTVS
# Assay: Z74 cell-based reporter assay: heat-induced RLuc expression controlled by endogenous HSF1
# Details: for inhibition at 12.5 µM: read-out: Inhibition of HSF1 activity at 12.5 μM IHSF [RLuc] (%); for inhibition at 25 µM: read-out: Inhibition of HSF1 activity at 25 μM IHSF [RLuc] (%); for IC50: inhibition of HSF1 activity [RLuc]
# Excerpt: For screening this sublibrary, a cell-based assay was developed. We opted for a cell-based assay, because a cell-free assay would have had to be a DNA-binding assay. Such an assay would have limited discovery to molecules capable of interfering with the DNA-binding function of HSF1. This was thought to be too narrow a focus, considering that three of the four cavities identified in the HSF1 DNA-binding domain are not near the DNA interaction region. A straightforward cell-based assay, in which a HSF1-responsive gene would be assayed, was considered likely to be over-inclusive. Compounds would be scored as hits that inhibit any factor that is involved in HSF1 activation or prevents HSF1 deactivation. These factors include protein kinases, activators of protein phosphatases, factors affecting HSF1 mRNA stability, HSP90, HDAC6, etc. For developing a more discriminating cell-based assay, advantage was taken of the modular nature of HSF1. […] The cell-based assay developed (see below for the particular format employed) compared transactivation by wild type HSF1 and chimeric HSF1 in cells exposed to an HSF1-activating heat treatment in the presence of a sublibrary compound. A compound was scored as a hit, if it inhibited the activity of wild type HSF1 but not of chimeric HSF1.
# The cell-based assay made use of HeLa-derived cell line Z74 that stably contains a gene for chimeric transcription factor LexA-(human) HSF1 under the control of a CMV early promoter, a firefly luciferase (flue) gene driven by a promoter responsive to the latter chimeric transcription factor and a Renilla luciferase (rluc) gene functionally linked to an hsp70b promoter and therefore controlled by endogenous HSF1 (FIG. 1A). As is shown in FIGS. 1B & C, the reporter genes responded similarly to heat dose, i.e., their activation depended on both duration of heat exposure and temperature of the exposure. […] Depletion of HSF1 (and LexA-HSF1) by siRNA supported the notion that this stress regulation is mediated by HSF1 (and LexA-HSF1). Therefore, the Z74 line was well suited for use in a screening assay aimed at discovering molecules that inhibit heat-induced HSF1 activity through interaction with the transcription factor's DNA-binding domain.
# The compounds of the afore-mentioned biased sublibrary were screened in cell line Z74 at 12.5 and 25 μM concentrations. Typically, Z74 cultures in 96-well plates were exposed to compound or vehicle for 2 h, heat-treated at 43.0° C. for 30 min, and incubated further for 6 h at 37° C. to allow for accumulation of the luciferases. RLuc and FLuc activities were determined, typically using the Dual-Glo® Luciferase Assay System (Promega Corp., Madison, Wis.), and reading luciferase light counts in a Wallac Microbeta Trilux-1450 Luminometer (PerkinElmer, Waltham, Mass.). IHSF 001 was one of two library compounds that inhibited RLuc expression but not FLuc expression in heat-treated Z74 cells (Table 1; FIG. 2A). Therefore, IHSF 001 is an inhibitor of HSF1 function that specifically acts through the HSF1 DNA-binding domain. […] A corroborating experiment utilized a cell line containing an hsp70b promoter-driven fluc gene. […] IHSF 001 is (E)-ethyl 4-oxo-4-(thiazol-2-ylamino)but-2-enoate. The compound can be obtained from commercial sources (e.g., AKE-PB-90340538, Akos).
# [1] = Z74 cells, 12.5 μM IHSF, negative values marked *: compound enhanced rLuc activity
# [2] = Z74 cells, 25 μM IHSF, 2 h exposure, 43° C. 30 min, 6 h at 37° C.
inhibition at 12.5 µM [1] [%],inhibition at 25 µM [2] [%],IC50 (Z74 cells) [µM],Compound,inhibition at 12.5 µM [%],inhibition at 25 µM [%]
58,91,–,"CCOC(=O)/C=C/C(=O)Nc1cc(C)nc(C)c1 [IHSF 082, (E)-3-(2,6-Dimethyl-pyridin-4-ylcarbamoyl)-acrylic acid ethyl ester]",–,–
13,26,> 25,"CCOC(=O)/C=C/C(=O)N(CCc1ccccn1)c1nccs1 [IHSF 112, (E)-3-[(2-Pyridin-2-yl-ethyl)-thiazol-2-yl-carbamoyl]-acrylic acid ethyl ester]",–,–
22,27,> 25,"O=C(/C=C/c1nnco1)Nc1nccs1 [IHSF 091, (E)-3-(1,3,4-Oxadiazol-2-yl)-N-(thiazol-2-yl)acrylamide]",–,–
15,29,–,"CCOC(=O)/C=C/C(=O)Nc1nc(C2CC2)cs1 [IHSF 053, (E)-3-(4-Cyclopropyl-thiazol-2-ylcarbamoyl)-acrylic acid ethyl ester]",–,–
6,44,–,"CCCC(=O)/C=C/C(=O)Nc1nccs1 [IHSF 095, (E)-4-Oxo-N-(thiazol-2-yl)hept-2-enamide]",–,–
90,99,4.7,"O=C(/C=C/C1=NCCO1)Nc1nccs1 [IHSF 092, (E)-3-(4,5-Dihydro-oxazol-2-yl)-N-thiazol-2-yl-acrylamide]",–,–
78,98,5.4,"O=C(/C=C/C1=NCCCO1)Nc1nccs1 [IHSF 090, (E)-3-(5,6-Dihydro-4H-[1,3]oxazin-2-yl)-N-thiazol-2-yl-acrylamide]",–,–
41,61,17.9,"O=C(/C=C/c1ncno1)Nc1nccs1 [IHSF 089, (E)-3-(1,2,4-Oxadiazol-5-yl)-N-(thiazol-2-yl)acrylamide]",–,–
22,69,20.2,"CCOC(=O)/C=C/C(=O)Nc1nc(-c2ccccn2)cs1 [IHSF 054, (E)-3-(4-Pyridin-2-yl-thiazol-2-ylcarbamoyl)-acrylic acid ethyl ester]",–,–
62,92,10.6,"CCOC(=O)/C=C/C(=O)Nc1nc(CC)c(-c2ccccc2)s1 [IHSF 107, (E)-3-(4-Ethyl-5-phenyl-thiazol-2-ylcarbamoyl)-acrylic acid ethyl ester]",–,–
32,37,–,"CCOC(=O)/C=C/C(=O)Nc1ccon1 [IHSF 017, (E)-3-(Isoxazol-3-ylcarbamoyl)-acrylic acid ethyl ester]",–,–
60,89,7.1,"CCOC(=O)/C=C/C(=O)Nc1ncc(-c2ccccc2)s1 [IHSF 014, (E)-3-(5-Phenyl-thiazol-2-ylcarbamoyl)-acrylic acid ethyl ester]",–,–
5,18,–,"CCNC(=O)/C=C/C(=O)Nc1nccs1 [IHSF 030, (E)-But-2-enedioic acid ethylamide thiazol-2-ylamide]",–,–
0,25,–,"CCOC(=O)/C=C/C(=O)Nc1ccn(C)n1 [IHSF 016, (E)-3-(1-Methyl-1H-pyrazol-3-ylcarbamoyl)-acrylic acid ethyl ester]",–,–
–,–,–,"CCOC(=O)/C=C/C(=O)Nc1ccnc(-c2ccc(C)cc2)c1 [IHSF 081, (E)-3-(2-p-Tolyl-pyridin-4-ylcarbamoyl)-acrylic acid ethyl ester formic acid salt]",42,65
-30,48,> 25,"CCOC(=O)/C=C/C(=O)N(CCN1CCOCC1)c1nccs1 [IHSF 101, (E)-3-[(2-Morpholin-4-yl-ethyl)-thiazol-2-yl-carbamoyl]-acrylic acid ethyl ester]",–,–
34,53,–,"CCOC(=O)/C=C/C(=O)Nc1cnc(-c2ccccc2)s1 [IHSF 045, (E)-3-(2-Phenyl-thiazol-5-ylcarbamoyl)-acrylic acid ethyl ester]",–,–
69,96,10.8,"CCOC(=O)/C=C/C(=O)Nc1nc(C(=O)OC)c(-c2ccccc2)s1 [IHSF 105, 2-((E)-3 -Ethoxycarbonyl-acryloylamino)-5-phenyl-thiazole-4-carboxylic acid methyl ester]",–,–
56,66,–,"CCOC(=O)/C=C/C(=O)Nc1ccnc(-c2ccncc2)c1 [IHSF 076, (E)-3-([2,4′]Bipyridinyl-4-ylcarbamoyl)-acrylic acid ethyl ester]",–,–
27,74,18.7,"CCOC(=O)/C=C/C(=O)Nc1nc(-c2cccnc2)cs1 [IHSF 055, (E)-3-(4-Pyridin-3-yl-thiazol-2-ylcarbamoyl)-acrylic acid ethyl ester]",–,–
16,19,–,"CCN(CC)C(=O)/C=C/C(=O)Nc1nc(C)cs1 [IHSF 060, (E)-But-2-enedioic acid diethyl-amide (4-methyl-thiazol-2-yl)-amide]",–,–
24,34,–,"CCOC(=O)/C=C/C(=O)Nc1ccncc1C [IHSF 083, (E)-3-(3-Methyl-pyridin-4-ylcarbamoyl)-acrylic acid ethyl ester]",–,–
13,41,–,"CC(C)OC(=O)/C=C/C(=O)Nc1nccs1 [IHSF 028, (E)-3-(Thiazol-2-ylcarbamoyl)-acrylic acid isopropyl ester]",–,–
42,79,–,"CCOC(=O)/C=C/C(=O)Nc1ccnc(-c2ccccc2C)c1 [IHSF 079, (E)-3-(2-o-Tolyl-pyridin-4-ylcarbamoyl)-acrylic acid ethyl ester]",–,–
72,90,5.7,"CCOC(=O)/C=C/C(=O)N(C)c1nccs1 [IHSF 070, (E)-3-(Methyl-thiazol-2-yl-carbamoyl)-acrylic acid ethyl ester]",–,–
32,5,–,"CCOC(=O)/C=C/C(=O)Nc1cc(-c2ccccc2)cs1 [IHSF 043, (E)-3-(4-Phenyl-thiophen-2-ylcarbamoyl)-acrylic acid ethyl ester]",–,–
15,24,–,"CC(C)NC(=O)/C=C/C(=O)Nc1nccs1 [IHSF 031, (E)-But-2-enedioic acid isopropylamide thiazol-2-ylamide]",–,–
–,–,–,"CCOC(=O)/C=C/C(=O)Nc1ccnc(N2CCN(C)CC2)c1 [IHSF 078, (E)-3-[2-(4-Methyl-piperazin-1-yl)-pyridin-4-ylcarbamoyl]-acrylic acid ethyl ester formic acid salt]",32,54
